Tests used:
Type in all cases: in vivo
[1] = system: green foxtail (Setaria viridis); experiment: Test A postemergence application, visual injury rating 0-100
Summary of the method: (§1)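 Compounds formulated in a non-phytotoxic solvent with surfactant are sprayed onto soil of freshly planted loam-sand pots ahead of emergence, or onto emerged plants 2-10 cm tall. After a 10-day greenhouse period, each species is scored visually for injury against untreated controls.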

[2] = system: horseweed (Erigeron canadensis); experiment: as above
Summary of the method: as §1

soybean (Glycine max) [3] = experiment: as above
Summary of the method: as §1

[4] = system: palmer (palmer amaranth, palmer pigweed, Amaranthus palmeri); experiment: as above
Summary of the method: as §1

kochia (Bassia scoparia) [5] = experiment: as above
Summary of the method: as §1

corn (Zea mays) [6] = experiment: as above
Summary of the method: as §1

[7] = system: ryegrass, Italian (italian ryegrass, Lolium multiflorum); experiment: as above
Summary of the method: as §1

[8] = system: wheat (Triticum aestivum); experiment: as above
Summary of the method: as §1

[9] = system: ragweed (common ragweed, Ambrosia artemisiifolia); experiment: as above
Summary of the method: as §1

[10] = system: blackgrass (Alopecurus myosuroides); experiment: as above
Summary of the method: as §1

[11] = system: oat, wild (wild oat, Avena fatua); experiment: as above
Summary of the method: as §1

[12] = system: barnyardgrass (Echinochloa crus-galli); experiment: as above
Summary of the method: as §1

[13] = system: galium (catchweed bedstraw, Galium aparine); experiment: as above; conditions: 62 g ai/ha, postemergence, 10 days, 0 = no effect, 100 = complete control
Summary of the method: as §1

[14] = system: ducksalad (Heteranthera limosa); experiment: Test B flooded paddy test, visual plant response rating 0-100; conditions: 250 g ai/ha, Flood, applied to paddy water, evaluated after 13 days
Summary of the method: (§2)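 Treatment occurs at the 2-leaf stage by adding compound to floodwater standing 3 cm above the soil, a level kept for the whole test. Plants stay in the greenhouse 13 days before visual comparison with controls.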

[15] = system: barnyardgrass (Echinochloa crusgalli); experiment: as above; conditions: 250 g ai/ha, Flood, applied to paddy water, evaluated after 13 days
Summary of the method: as §2

rice (Oryza sativa) = experiment: as above; conditions: 250 g ai/ha, Flood, applied to paddy water, evaluated after 13 days
Summary of the method: as §2

[16] = system: sedge, umbrella (small-flower umbrella sedge, Cyperus difformis); experiment: as above; conditions: 250 g ai/ha, Flood, applied to paddy water, evaluated after 13 days
Summary of the method: as §2

[17] = system: green foxtail (Setaria viridis); experiment: Test A preemergence soil spray, visual injury rating 0-100; conditions: 10 days
Summary of the method: as §1

soybean (Glycine max) [18] = experiment: as above; conditions: 10 days
Summary of the method: as §1

[19] = system: palmer (palmer amaranth, palmer pigweed, Amaranthus palmeri); experiment: as above; conditions: 10 days
Summary of the method: as §1

kochia (Bassia scoparia) [20] = experiment: as above; conditions: 10 days
Summary of the method: as §1

corn (Zea mays) [21] = experiment: as above; conditions: 10 days
Summary of the method: as §1

[22] = system: ryegrass, Italian (italian ryegrass, Lolium multiflorum); experiment: as above; conditions: 10 days
Summary of the method: as §1

[23] = system: wheat (Triticum aestivum); experiment: as above; conditions: 10 days
Summary of the method: as §1

[24] = system: ragweed (common ragweed, Ambrosia artemisiifolia); experiment: as above; conditions: 10 days
Summary of the method: as §1

[25] = system: blackgrass (Alopecurus myosuroides); experiment: as above; conditions: 10 days
Summary of the method: as §1

[26] = system: oat, wild (wild oat, Avena fatua); experiment: as above; conditions: 10 days
Summary of the method: as §1

[27] = system: barnyardgrass (Echinochloa crus-galli); experiment: as above; conditions: 10 days
Summary of the method: as §1

[28] = 62 g ai/ha, postemergence, 10 days, 0 = no effect, 100 = complete control
[29] = Postemergence, 16 g ai/ha, greenhouse 10 days, 0 no effect, 100 complete control
[30] = 62 g ai/ha, 0 = no effect, 100 = complete control

## CC1(C(=O)NC2CC=C(C(=O)O)C2)CN(c2cc(F)cc(Cl)c2)C(=O)O1 (stereo not drawn) [Compound 160]
[1]; [28]
  Foxtail, Green plant response rating (0-100): 0
[1]; [29]
  Foxtail, Green plant response rating (0 to 100 scale): 0
[2]; [28]
  Horseweed plant response rating (0-100): 0
[2]; [29]
  Horseweed plant response rating (0 to 100 scale): 0
Soybean (Glycine max) [3]; [28]
  Soybean plant response rating (0-100): 0
Soybean (Glycine max) [3]; [29]
  Soybean plant response rating (0 to 100 scale): 0
[4]; [28]
  Pigweed, Palmer plant response rating (0-100): 0
[4]; [29]
  Pigweed, Palmer plant response rating (0 to 100 scale): 0
Kochia (Bassia scoparia) [5]; [28]
  Kochia plant response rating (0-100): 0
Kochia (Bassia scoparia) [5]; [29]
  Kochia plant response rating (0 to 100 scale): 0
Corn (Zea mays) [6]; [28]
  Corn plant response rating (0-100): 0
Corn (Zea mays) [6]; [29]
  Corn plant response rating (0 to 100 scale): 0
[7]; [28]
  Ryegrass, Italian plant response rating (0-100): 0
[7]; [29]
  Ryegrass, Italian plant response rating (0 to 100 scale): 0
[8]; [28]
  Wheat plant response rating (0-100): 0
[8]; [29]
  Wheat plant response rating (0 to 100 scale): 0
[9]; [28]
  Ragweed plant response rating (0-100): 0
[9]; [29]
  Ragweed plant response rating (0 to 100 scale): 0
[10]; [28]
  Blackgrass plant response rating (0-100): 0
[10]; [29]
  Blackgrass plant response rating (0 to 100 scale): 0
[11]; [28]
  Oat, Wild plant response rating (0-100): 0
[11]; [29]
  Oat, Wild plant response rating (0 to 100 scale): 0
[12]; [28]
  Barnyardgrass plant response rating (0-100): 0
[12]; [29]
  Barnyardgrass plant response rating (0 to 100 scale): 0
[13]
  Galium plant response rating (0-100): 0
[14]
  Plant response rating, Ducksalad (0 to 100 scale, 0 is no effect and 100 is complete control): 55
[15]
  Plant response rating, Barnyardgrass (0 to 100 scale, 0 is no effect and 100 is complete control): 0
Rice (Oryza sativa)
  Plant response rating, Rice (0 to 100 scale, 0 is no effect and 100 is complete control): 0
[16]
  Plant response rating, Sedge, Umbrella (0 to 100 scale, 0 is no effect and 100 is complete control): 25
[17]; 16 g ai/ha, 0 to 100 scale
  Foxtail, Green plant response rating: 0
[17]; [30]
  Foxtail, Green plant response rating (0-100): 0
Soybean (Glycine max) [18]; 16 g ai/ha, 0 to 100 scale
  Soybean plant response rating: 0
Soybean (Glycine max) [18]; [30]
  Soybean plant response rating (0-100): 0
[19]; 16 g ai/ha, 0 to 100 scale
  Pigweed, Palmer plant response rating: 0
[19]; [30]
  Pigweed, Palmer plant response rating (0-100): 0
Kochia (Bassia scoparia) [20]; 16 g ai/ha, 0 to 100 scale
  Kochia plant response rating: 0
Kochia (Bassia scoparia) [20]; [30]
  Kochia plant response rating (0-100): 0
Corn (Zea mays) [21]; 16 g ai/ha, 0 to 100 scale
  Corn plant response rating: 0
Corn (Zea mays) [21]; [30]
  Corn plant response rating (0-100): 0
[22]; 16 g ai/ha, 0 to 100 scale
  Ryegrass, Italian plant response rating: 0
[22]; [30]
  Ryegrass, Italian plant response rating (0-100): 0
[23]; 16 g ai/ha, 0 to 100 scale
  Wheat plant response rating: 0
[23]; [30]
  Wheat plant response rating (0-100): 0
[24]; 16 g ai/ha, 0 to 100 scale
  Ragweed plant response rating: 0
[24]; [30]
  Ragweed plant response rating (0-100): 0
[25]; 16 g ai/ha, 0 to 100 scale
  Blackgrass plant response rating: 0
[25]; [30]
  Blackgrass plant response rating (0-100): 0
[26]; 16 g ai/ha, 0 to 100 scale
  Oat, Wild plant response rating: 0
[26]; [30]
  Oat, Wild plant response rating (0-100): 0
[27]; 16 g ai/ha, 0 to 100 scale
  Barnyardgrass plant response rating: 0
[27]; [30]
  Barnyardgrass plant response rating (0-100): 0

Source: US20260285850A1, “SUBSTITUTED OXAZOLIDINONES AND IMIDAZOLINONES AS HERBICIDES” (FMC CORPORATION, priority 2023, published 2026)
